Here are results for one molecule from patent US20180185374A1, “INHIBITORS OF MTOR KINASE AS ANTI-VIRAL AGENTS” (THE TRUSTEES OF PRINCETON UNIVERSITY, priority 2009, published 2018).

The structures appear in SMILES notation.

The test system of assay [1] is HCMV. Kind of assay: Western blot of HCMV proteins (IE1, pUL44, pUL99) in infected fibroblasts. The assay is classed as cell-based, human cytomegalovirus. The following applies: 6 to 96 hpi; rapamycin 20 nM, Torin1 250 nM; 3 PFU/cell. How it is done: FIG. 2. […] Serum-starved confluent fibroblasts were infected with HCMV at a multiplicity of 3 PFU/cell. […] Control cultures received the vehicle in which Torin1 was dissolved (NT). At 2 hpi cells were harvested, and cell-associated viral DNA was quantified by real-time PCR analysis. Error bars represent the standard errors of the means from two independent experiments performed in duplicate. […] The level of IE1 was determined at 6 hpi by a Western blot assay using an IE1-specific monoclonal antibody. The image is representative of two independent experiments. […] The expression of a GFP marker gene present in the viral genome was monitored at 24 h after infection in the presence or absence of drug.
(§1) FIG. 3. […] (A) Rapamycin-resistant mTOR activity is required for the accumulation of an some but not all HCMV proteins. […] Cells were harvested at the indicated times, and the accumulation of the indicated proteins was analyzed by Western blotting. […] At the indicated times DNA was isolated, and viral DNA was quantified by qPCR. Equivalent amounts of DNA were analyzed for each sample, and the results are normalized to the level of actin DNA per sample. […] At the indicated times the amount of UL99 RNA was determined by qPCR, and the results are normalized to the amount of actin RNA in each sample.
Cells were lysed in radioimmunoprecipitation assay (RIPA) buffer (50 mM Tris-HCl [pH 7.4], […], 0.25% sodium deoxycholate, 150 mM NaCl, 1 mM EDTA) containing protease inhibitors (complete EDTA free; Roche). Protein concentrations in each lysate were determined by the Bradford assay. 30 μg of protein was analyzed per sample. Proteins in cell lysates were resolved on SDS-containing 10% polyacrylamide gels. Proteins were transferred onto Protran membranes by using a semidry transfer apparatus. […]
Antibodies to pUL99 have been described previously (Silva, et al. J. Virol. (2003) 77:10594-10605). In addition, accumulation of HCMV DNA was monitored following infection using the methods described above.
(Immunoblotting shows a protein as a band on a membrane.)

Assay [2] concerns HCMV. The assay can be described thus: HCMV DNA accumulation by qPCR. To be noted: 96 hpi; Torin1 250 nM; 0.05 PFU/cell. The assay is classed as cell-based, human cytomegalovirus. The procedure:
as §1
Determination of viral DNA and transcript accumulation in infected cells. The accumulation of viral DNA during HCMV infection was monitored by quantitative PCR (qPCR) as described previously (Terhune, et al. (2007) J. Virol. 81:3109-3123).
Briefly, primary human fibroblasts were infected with BADinGFP at a multiplicity of 0.05 PFU/cell. At the indicated times, cells were harvested by scraping them into medium and were stored as frozen cell pellets until analysis. Cell pellets were resuspended in 500 μl of a solution containing 400 mM NaCl, 10 mM Tris (pH 7.5), and 10 mM EDTA. […] For each sample, DNA was quantified by using a NanoDrop spectrophotometer (Thermo Scientific). […]
Viral DNA accumulation was measured by quantitative real-time PCR of fibroblasts treated with rapamycin or Torin1. […]
A general note: Quantitative PCR measures a nucleic acid by following its amplification.

The subject of a further assay is eIF4F complex. Kind of assay: m7GTP-Sepharose cap-binding assay, HCMV-infected fibroblasts. Format: cell-based, human. The following applies: rapamycin 20 nM, Torin1 250 nM. The procedure: FIG. 4. Rapamycin-resistant mTOR activity is required for 4EBP1 phosphorylation and eIF4F complex integrity during HCMV infection. Serum-starved confluent human fibroblasts were infected with HCMV at a multiplicity of 3 PFU/cell. […] (A) At 48 hpi the phosphorylation status of mTORC1 targets was assessed by Western blot assay by using antibodies to phosphorylated targets (4EBP1-PT^37/46 and rpS6-PS^235/6) and total proteins. Tubulin was assayed as a loading control. (B) Same as above (A) except that cells were harvested at the indicated times. (C and D) After mock infection (M) or infection with HCMV (WT) at a multiplicity of 3 PFU/cell, cultures were harvested at the indicated times. Equivalent amounts of protein from each sample were incubated with m^7GTP-Sepharose, and the isolated protein complexes were analyzed by Western blotting using the indicated antibodies to the eIF4F complex and 4EBP1. In all cases the results are representative of at least two independent experiments. lys, lysate.
The phosphorylation status of 4EBP1 regulates cap-dependent protein translation. Hypophosphorylated 4EBP1 binds to eIF4E and inhibits the formation of the eIF4F complex, while the phosphorylation of 4EBP1 inhibits its interaction with eIF4E. […]

Take `CCC(=O)N1CCN(c2ccc(-n3c(=O)ccc4cnc5ccc(-c6cnc7ccccc7c6)cc5c43)cc2C(F)(F)F)CC1` [Torin1]: in the assay with HCMV [1], the “accumulation of early protein pUL44” value was “inhibited the accumulation of IE1 and pUL44 to a limited extent”; the “accumulation of immediate-early protein IE1” value is “inhibited the accumulation of IE1 and pUL44 to a limited extent”; the “accumulation of late protein pUL99” value was “dramatically reduced”. The “reduction of viral DNA accumulation” value with HCMV [2] is on record as 150 fold. In the assay on eIF4F complex, the “association of 4EBP1 with m7GTP-Sepharose” value is “substantially increased association”; the “association of eIF4G and eIF4A with the cap analog” value is given as “reduced association”.
